Source: patent US11912723B2, “KRAS modulators and uses thereof” (Quanta Therapeutics, Inc., priority 2022, dated 2024)

What was measured:
[1] = target: T1, GST-tagged KRAS G12D (2-169) (Homo sapiens, UniProt P01116, G12D); assay: Nucleotide exchange assay (NEA), HTRF of SOS-mediated GTP-DY-647P1 binding; format: biochemical; conditions: 5 nM GST-KRAS G12D, 20 nM SOScat, 150 nM GTP; compound 1 h at RT
T1 construct: GST-tagged KRAS^G12D (2-169, Reaction Biology, MSC-11-539); purchased Reaction Biology MSC-11-539 (KRAS G12D); MSC-11-502 (SOS1cat)
Procedure, shortened: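 SOS1cat (564-1049)-driven loading of GTP-DY-647P1 onto KRAS G12D, read by HTRF with anti-GST Tb cryptate donor; compound preincubated with KRAS 1 h at RT. Final 5 nM KRAS, 20 nM SOScat, 150 nM GTP, pH 7.3 HEPES buffer; read up to 90 min at RT. Blanked to no-SOS1; 4-parameter fit of % inhibition.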

[2] = test system: AGS (KRAS G12D) cells, phospho-ERK; assay: pERK In Cell Western (ICW) assay (Method B); format: cell-based; conditions: 3 hours
Protocol: pERK ICW is a high throughput screening assay to evaluate the cellular potency of mutant KRAS small molecule inhibitors. KRAS mutant cell line AGS (KRAS^G12D) were purchased from ATCC and maintained in DMEM and RPMI medium supplemented with 10% fetal bovine serum and Penicillin/Streptomycin.
Cells grown in exponential phase were trypsinized, resuspended in fresh media, and viable cells were counted using a cell counter with Trypan Blue (BioRad TC20). Cells were seeded into 384-well plate (Greiner 781091) at density of 5,000 cells/well for AGS and allowed to grow overnight in a 37° C. CO2 incubator. The next day, compounds were dispensed into wells with a ½ log, 10-point serial dilution and top concentration of 10 μM using Tecan D300e dispenser and incubated for 3 hours in a 37° C. CO2 incubator. Cells were then fixed with paraformaldehyde (Electron Microscopy Sciences, 15710, 4% final concentration) for 30 min, permeabilized with wash buffer (1×PBS+0.1% Triton X-100) for 30 min and blocked with Odyssey blocking buffer (Li—COR 927-70001) for 1 hour, all at room temperature (RT). Phospho-ERK antibody (CST 4370L) was diluted 1:500 in Odyssey blocking+0.2% Tween 20 and incubated with cells overnight at 4° C. The next day, plates were washed 5× with wash buffer, incubated with IRDye 800 CW, Goat anti-Rabbit secondary antibody (Li—COR 926-32211, 1:500) and DRAQ5 (CST 4084L, 1:5,000) diluted in Odyssey blocking+0.2% Tween 20 for 1 hour, washed 5×, and imaged on an Odyssey CLx imaging system.
For data analysis, signal intensities from 800 (phosphor-ERK) and 700 (DRAQ5) channels were extracted, and phospho-ERK signals were normalized to DRAQ5 signals for each well and percent of DMSO control values were computed. Data were then imported into Graphpad Prism to compute half-maximal inhibitory concentrations (IC50) using a 4-parameter variable slope model. Z-factor for each plate was computed from signals derived from wells treated with either DMSO or 5 μM of Trametinib. AGS pERK ICW (Method B) IC50 (uM) values of selected compounds are depicted in Table 2 with compounds having a value 0.001 uM to 0.01 uM as ++++; >0.01 uM to 0.1 uM as +++; >0.1 uM to 1 uM as ++; 1 uM to 10 uM as + and >10 uM as NA.

T1 sequence (P01116 2-169 isoform P01116-2 G12D): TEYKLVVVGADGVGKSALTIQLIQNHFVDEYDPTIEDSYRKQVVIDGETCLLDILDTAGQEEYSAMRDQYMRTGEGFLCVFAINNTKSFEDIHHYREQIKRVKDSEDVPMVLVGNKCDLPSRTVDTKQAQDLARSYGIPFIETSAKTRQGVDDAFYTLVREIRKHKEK

Structure (SMILES)	IC50 [1]	IC50 ([2]; Homo sapiens)	IC50 [2]
OC1CCCN(c2nc(OC[C@@]34CCCN3C[C@H](F)C4)nc3c2COC2(CCc4c(Cl)cccc42)C3)CC1 (mixture of isomers) [Compound 6, 1-[4′-chloro-2-[[rac-(2R,8S)-2-fluoro-1,2,3,5,6,7-hexahydropyrrolizin-8-yl]methoxy]spiro[5,8-dihydropyrano[4,3-d]pyrimidine-7,1′-indane]-4-yl]azepan-4-ol]	1 to 20 µM	> 10 µM	
CN(C)C(=O)c1cc2n(n1)CCCN(c1nc(OC[C@@]34CCCN3C[C@H](F)C4)nc3c1COC1(CCCc4c(Cl)cc(O)cc41)C3)C2 (mixture of isomers) [Compound 43, 5-[5′-chloro-7′-hydroxy-2-[[rac-(2R,8S)-2-fluoro-1,2,3,5,6,7-hexahydropyrrolizin-8-yl]methoxy]spiro[5,8-dihydropyrano[4,3-d]pyrimidine-7,1′-tetralin]-4-yl]-N,N-dimethyl-4,6,7,8-tetrahydropyrazolo[1,5-a][1,4]diazepine-2-carboxamide]	0.01 to 0.1 µM	1 to 10 µM	
C=C1CN2CCCC2(COc2nc3c(c(N4CCCn5nc(C(=O)N(C)C)c(Cl)c5C4)n2)CO[C@@]2(CCc4c(Cl)cccc42)C3)C1 (mixture of isomers) [Compound 54, 3-chloro-N,N-dimethyl-5-[rac-(7S)-4′-chloro-2-[(6-methylene-2,3,5,7-tetrahydro-1H-pyrrolizin-8-yl)methoxy]spiro[5,8-dihydropyrano[4,3-d]pyrimidine-7,1′-indane]-4-yl]-4,6,7,8-tetrahydropyrazolo[1,5-a][1,4]diazepine-2-carboxamide]	< 0.01 µM	0.1 to 1 µM	
Oc1ccc2c(c1)C1(CCC2)Cc2nc(OC[C@@]34CCCN3C[C@H](F)C4)nc(N3CCCCCC3)c2CO1 (single isomer, unassigned) [Compound 7]	1 to 20 µM	> 10 µM	
Oc1ccc2c(c1)C1(CCC2)Cc2nc(OC[C@@]34CCCN3C[C@H](F)C4)nc(N3CCCCCC3)c2CO1 (single isomer, unassigned) [Compound 8]	0.1 to 1 µM		> 10 µM
O=C1NC(=O)C2(CCCN(c3nc(OC[C@@]45CCCN4C[C@H](F)C5)nc4c3COC3(CCc5c(Cl)cccc53)C4)C2)N1 (single isomer, unassigned) [Compound 24A, (5*)-9-[(7*)-4′-chloro-2-[[(2R,8S)-2-fluoro-1,2,3,5,6,7-hexahydropyrrolizin-8-yl]methoxy]spiro[5,8-dihydropyrano[4,3-d]pyrimidine-7,1′-indane]-4-yl]-1,3,9-triazaspiro[4.5]decane-2,4-dione]	0.01 to 0.1 µM	1 to 10 µM	
F[C@H]1CN2CCC[C@@]2(COc2nc3c(c(N4CCCCCC4)n2)COC2(CCc4c(Cl)cccc42)C3)C1 (stereo partly drawn) [Compound 1, 4′-(azepan-1-yl)-4-chloro-2′-(((2R,7aS)-2-fluorotetrahydro-1H-pyrrolizin-7a(5H)-yl)methoxy)-2,3,5′,8′-tetrahydrospiro[indene-1,7′-pyrano[4,3-d]pyrimidine]]	1 to 20 µM	> 10 µM	
F[C@H]1CN2CCC[C@@]2(COc2nc3c(c(N4C[C@H]5CC[C@@H](C4)N5)n2)COC2(CCc4c(Cl)cccc42)C3)C1 (stereo partly drawn) [Compound 2, 4′-((1R,5S)-3,8-diazabicyclo[3.2.1]octan-3-yl)-4-chloro-2′-(((2R,7aS)-2-fluorotetrahydro-1H-pyrrolizin-7a(5H)-yl)methoxy)-2,3,5′,8′-tetrahydrospiro[indene-1,7′-pyrano[4,3-d]pyrimidine]]	0.01 to 0.1 µM	1 to 10 µM	
OC1CCCN(c2nc(OC[C@@]34CCCN3C[C@H](F)C4)nc3c2COC2(CCCc4ccc(Br)cc42)C3)CC1 (stereo partly drawn) [Compound 4, 1-[7′-bromo-2-[[(2R,8S)-2-fluoro-1,2,3,5,6,7-hexahydropyrrolizin-8-yl]methoxy]spiro[5,8-dihydropyrano[4,3-d]pyrimidine-7,1′-tetralin]-4-yl]azepan-4-ol]	1 to 20 µM	> 10 µM	
